Values quoted from earlier work as cited in patent US20160311746A1, “METHOD OF PRODUCING ADIPIC ACID OR AT LEAST A RESULTANT PRODUCT THEREOF” (BASF SE, priority 2013, published 2016).

Settings: at about 47° C.

In the case of `O=C(O)/C=C\C=C/C(=O)O` [cis,cis-muconic acid], the solubility in water is given as “about 1 g per 100 g of water”.
